Reference: patent US20260373497A1, “MOLECULAR MACHINES STIMULATE INTERCELLULAR CALCIUM WAVES AND CAUSE MUSCLE CONTRACTION” (William Marsh Rice University, priority 2022, published 2026)
“Also recorded” adds a separate entry of the source.

What was measured:
[1] = tested on: C2C12 myoblasts; test: MM-induced calcium release in C2C12 cells (Fluo-4); type: cell-based, mouse; conditions: for Calcium release in C2C12 myoblasts: light for 500 ms, MM 1 8 μM
Source text: FIGS. 36A-36D—MMs cause intracellular calcium waves in C2C12 myoblasts, a) MM 1 (unidirectional, ~3 MHz) structure showing rotor and stator. b) Rotation cycle of a MM. c) Confocal microscope images of C2C12 myoblasts with MM and labeled with Fluo-4. Stimulated areas are indicated by the red arrows immediately before stimulation and 10 s after stimulation. Scale bar=30 μm. d) Average normalized fluorescence intensity trace of stimulated C2C12 cells myoblasts treated with either DMSO (n=6) or MM 1 (n=7) and stimulated with 400-nm laser light for 500 ms. Laser stimulation is shown by the cyan line.
Fluo-4 is an intracellular calcium dye that fluoresces green when binding to calcium and is commonly used to observe intracellular calcium spikes in many cell types.
C2C12 cells will undergo differentiation from myoblasts to multinucleated myotubes when allowed to grow to confluence. This process occurs over the course of several days and can be sped up by replacing normal growth media with low serum differentiation media (Jang et al., 2022). The responsiveness of C2C12 cells to MM stimulation changes was tracked as they went through the process of growth and differentiation (FIG. 39). When plated on the first day, the cells are in low confluency, and show clear morphology of myoblasts. The cells reach around 100% confluency on day 4 (FIG. 39A), at which point they begin to differentiate to form the myotubes. They show lowest uptake of Fluo-4 and nearly no responses. After about 9 days of growth in regular growth media, myotubes begin to form, which have a fibrous, striated and multinucleated appearance, and the uptake of Fluo-4 could be observed again.

[2] = tested on: C2C12 myotubes; test: C2C12 myotube contraction (image subtraction); type: cell-based, mouse; conditions: 400-nm light 1.5 s, image subtraction
Description: FIG. 35—Flow chart for the image subtraction process. First, the background is subtracted from the traces to account for drift during the course of the experiment (top row). After this, the traces are zeroed at the point of stimulation, and the area is calculated from the point of stimulation until the end of the experiment to yield the contraction magnitude. (bottom row).
FIGS. 40A-40D—MMs induce contraction in C2C12 myotubes, a) Confocal microscopy images of Fluo-4 and b) image subtraction of brightfield images to highlight calcium release and contractile motion in three stimulated myotubes (indicated by the red arrows) immediately before stimulation (t=0) for 1.5 s with 400-nm light, as well as 10 s and 120 s after stimulation. Scale bar=30 μm. c) Magnitude of contraction of MM 1 compared to DMSO, MM 2, MM 3, and cells treated with 10 μM U-73122. d) Mechanism of skeletal muscle cell contraction.
This method yielded images where the pixel intensity corresponds to movement over the course of the experiment (FIG. 40C), allowing us to easily visualize and quantify contraction.

[3] = tested on: HEK293 cells; test: Pharmacological blocking of MM 1-induced calcium responses; type: cell-based; conditions: MM 1 + light in calcium-free PBS
Description: FIGS. 14A-14J—Mechanistic study of MM-induced ICW. (a) Schematic of possible mechanisms by which calcium can enter the cytoplasm. Prepared with Biorender.com. (b) Confocal microscope images of HEK293 cells treated with MM 1, MitoTracker Green, ER Tracker Red, and CellMask Deep Red. Scale bars are both 20 μm and apply to the images in the same row. (c-h) Calcium waves elicited by MM 1-treated cells (c) in calcium-free PBS, (d) in RR (1 μM), (e) in Gd^3+ (50 μM), (f) after treatment of cells with Th (1 μM), (g) in Ry (100 μM), (h) in XeC (25 μM), (i) in U-73 (10 μM), (j) after pre-treatment of cells with Cyto D (2 μM). The solid line represents the calcium profiles averaged from six independent cells. The shaded region represents the standard error of the mean (n=6). Stimuli were presented after 30 s of imaging in each case, and the time of stimulus presentation is indicated by the vertical cyan line. […] All stimuli were delivered with a pulse width of 250 ms to a circular area of diameter 5 μm at a power ranging from 3.2×10^2 W cm^−2 to 5.1×10^2 W cm^−2. For all plots, the cyan line indicates the time of stimulus presentation. Controls and experimental groups were imaged and stimulated on the same day using the same conditions and with the same batch of cells. Error bars in the bar graphs represent the standard deviation of the mean of n=3 experiments (at least 6 stimulated cells per experiment). Statistical analyses were performed using a one-tailed Welch's t-test. * P-value<0.05, ** P-value<0.01, *** P-value<0.001, **** P-value<0.0001.
Imaging was conducted in imaging extracellular buffer (iECB; 119 mM NaCl, 5 mM KCl, 10 mM HEPES, 2 mM CaCl2, 1 mM MgCl2 (pH 7.2); 320 mOsm). Imaging in calcium-free medium was conducted in phosphate-buffered saline. Cells were prepared for imaging by seeding a 35 mm Ibidi imaging dish with ~50,000 cells in 1 mL of DMEM, and grown at 37 °C, 5% CO2 for 2 days. Prior to imaging, cells were incubated with dyes and/or molecules resuspended in complete growth medium at the appropriate concentration (MM 1 (8 μM), MM 2 (8 μM), MM 3 (24 μM), MM 4 (8 μM), Fluo-4 (2 μM)). MM and Fluo-4 were loaded into cells for 45 min. Cells treated with thapsigargin were exposed for 30 min after MM and Fluo-4 loading. Cells treated with organelle-targeting dyes were exposed for 5 min after MM loading. Ruthenium red and Gd^3+ were included in the imaging medium during stimulation and were associated with cells for 10 min prior to imaging. At the end of incubation, this medium was replaced with the iECB. Unless otherwise specified, all experiments were replicated in triplicate.
Pharmacological Experiments: In pharmacological blocking experiments, cells were loaded with MM and Fluo-4 as previously described. Typical imaging experiments in previously described extracellular buffer were then conducted as a positive control. Then, the imaging buffer was replaced, and the cells were treated as required for each experiment. After a brief recovery period, the cells were imaged again, and six different cells were stimulated. Experiments in calcium-free imaging buffer used phosphate buffered saline. Thapsigargin (Th: 1 μM) and Cytochalasin D (Cyto D; 2 μM) were incubated with cells in complete growth medium for 1 h (Th) or 2 h (Cyto D) before imaging. Ruthenium red (RR; 1 μM), gadolinium (Gd; 50 μM), ryanodine (Ry; 100 μM), xestospongin C (XeC; […]), and U-73122 (U-73; 10 μM) were administered directly into the imaging medium. Cells were incubated in the medium for ~5 min prior to imaging. Traces presented are representative results across at least six cells from single experiments, while bar graphs represent the average results across at least three distinct experiments.

[4] = tested on: C2C12 myoblasts; test: Localization of MM 1 in C2C12 cells; type: cell-based, mouse; conditions: 45 minutes of incubation

Row | SMILES | Calcium release at 3 times higher concentration ([1]; MM 3, 3×) | Calcium release in C2C12 myoblasts [1] | Myotube contraction [2] | Calcium response amplitude in absence of extracellular calcium [3] | Calcium release with scavenger combination ([1]; MM 1 + light, with thiourea-containing scavenger combination (1× and 0.2×)) | Responsiveness to MM stimulation during differentiation ([1]; MM 1, day 1 to day 3) | Responsiveness to MM stimulation during differentiation ([1]; MM 1, day 4 to day 8) | Responsiveness to MM stimulation during differentiation ([1]; MM 1, day 9) | Calcium release at lower laser power ([1]; MM 1, lower laser powers) | Cell permeation [4]
1 | CC1Cc2cc(NCCN(C)C)c3ccccc3c2C1=C1c2ccccc2-c2ccccc21 (stereo not drawn) [MM 3] | no measurable increase in calcium release | did not induce any calcium release | Strong cellular contraction did not occur | – | – | – | – | – | – | –
2 | CC1Cc2ccc3ccccc3c2C1=C1c2ccccc2Sc2cc(NCCN(C)C)ccc21 (stereo not drawn) [MM 1] | – | robust intracellular calcium release; also recorded: calcium transients several times larger in magnitude than MM 2 | strong contraction in C2C12 myotubes | showed no differences in response amplitude compared to a positive control in calcium-containing medium | without changing the magnitude of calcium release | slight decrease of the responsivity from day 1 to day 3 | lose their responsiveness to MM stimulation | increase in responsiveness to MM stimulation | lower calcium release | permeate through the cell membrane after 45 minutes of incubation
